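Compound exposure: 48 hours, 5 concentrations, 96-well plates. At the GI50, growth is halved. At the TGI there is no net growth.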
What was measured:
Test in all cases: growth of human tumour cells (NCI), 48 h
SK-OV-3 ovarian = tested on: SK-OV-3 ovarian
M14 melanoma = tested on: M14 melanoma
786-0 renal = tested on: 786-0 renal
U251 CNS = tested on: U251 CNS
ACHN renal = tested on: ACHN renal
A498 renal = tested on: A498 renal
UO-31 renal = tested on: UO-31 renal
RPMI-8226 leukemia = tested on: RPMI-8226 leukemia
NCI-H460 lung = tested on: NCI-H460 lung
SF-295 CNS = tested on: SF-295 CNS

SMILES | TGI (SK-OV-3 ovarian) | TGI (M14 melanoma) | TGI (786-0 renal) | TGI (U251 CNS) | TGI (ACHN renal) | TGI (A498 renal) | TGI (UO-31 renal) | TGI (RPMI-8226 leukemia) | TGI (NCI-H460 lung) | TGI (SF-295 CNS) | GI50 (SK-OV-3 ovarian) | GI50 (M14 melanoma) | GI50 (U251 CNS) | GI50 (ACHN renal) | GI50 (A498 renal) | GI50 (UO-31 renal) | GI50 (RPMI-8226 leukemia) | GI50 (NCI-H460 lung) | GI50 (SF-295 CNS)
CCOC(=O)c1cc(I)c(-c2cc(C)no2)n1C | > 100 µM | > 100 µM | > 100 µM | > 100 µM | > 100 µM | > 100 µM | > 100 µM | > 100 µM | > 100 µM | > 100 µM | – | – | – | – | – | – | – | – | –
O=C(CCCCCCCCC(=O)N1C(=O)CC(=O)N(c2ccccc2)C1=S)N1C(=O)CC(=O)N(c2ccccc2)C1=S | > 100 µM | > 100 µM | > 100 µM | > 100 µM | > 100 µM | > 100 µM | > 100 µM | > 100 µM | > 100 µM | > 100 µM | – | – | – | – | – | – | – | – | –
COc1cc(C2=NNC(=O)c3ccccc3N2c2nc(-c3cccs3)nc3ccc(Br)cc23)cc(OC)c1OC | > 100 µM | 73.8 µM | > 100 µM | 92.9 µM | 63.3 µM | 91.9 µM | > 100 µM | 12.9 µM | 14.2 µM | 31.7 µM | – | – | – | – | – | – | – | – | –
C=CCN1C(=O)/C(=C/c2ccco2)N=C1SC1OC(COC(C)=O)C(OC(C)=O)C(OC(C)=O)C1OC(C)=O (configuration not stated) | > 100 µM | – | – | > 100 µM | > 100 µM | > 100 µM | – | > 100 µM | > 100 µM | > 100 µM | – | – | – | – | – | – | – | – | –
C[n+]1c(-c2ccc(/C=N/Nc3ccnc(N/N=C/c4ccc(-c5cn6ccsc6[n+]5C)cc4)n3)cc2)cn2ccsc21 | > 100 µM | 54.7 µM | 46.6 µM | > 100 µM | 78.6 µM | 65.3 µM | > 100 µM | > 100 µM | 91.3 µM | – | – | – | – | – | – | – | – | – | –
CCOP(=O)(OCC)C(c1ccccc1)N(C(=O)NC(F)(F)F)c1cccc(F)c1 (configuration not stated) | – | > 100 µM | > 100 µM | > 100 µM | > 100 µM | – | > 100 µM | > 100 µM | > 100 µM | > 100 µM | – | – | – | – | – | – | – | – | –
Nc1ccccc1.[C-]#[O+].[C-]#[O+].[C-]#[O+].[C-]#[O+].[C-]#[O+].[Cr] | > 10 µM | > 10 µM | – | > 10 µM | > 10 µM | 8.28 µM | 9.66 µM | > 10 µM | > 10 µM | > 10 µM | 5.66 µM | 3.44 µM | 9.45 µM | 4.84 µM | 3 µM | 1.86 µM | 3.39 µM | 5.64 µM | > 10 µM
O=C1Nc2ccccc2Cn2c1cc1oc(-c3ccccc3)cc12 | 69.9 µM | – | 45.4 µM | 36.3 µM | > 100 µM | > 100 µM | – | – | > 100 µM | 63.3 µM | – | – | – | – | – | – | – | – | –
O=C(CCCCCC(=O)N1CC(CCl)c2ccc([N+](=O)[O-])cc21)N1CC(CCl)c2ccc([N+](=O)[O-])cc21 (configuration not stated) | > 100 µM | > 100 µM | > 100 µM | > 100 µM | > 100 µM | > 100 µM | > 100 µM | – | > 100 µM | > 100 µM | – | – | – | – | – | – | – | – | –
CC(=O)OCc1cncn1S(=O)(=O)c1ccc(C)cc1 | > 100 µM | > 100 µM | > 100 µM | > 100 µM | > 100 µM | – | > 100 µM | > 100 µM | > 65.5 µM | > 100 µM | – | – | – | – | – | – | – | – | –
CC(=O)c1ccccc1NCC(=O)Nn1cnc2ccc(S(=O)(=O)Nc3ccccc3C(C)=O)cc2c1=O | > 100 µM | > 100 µM | > 100 µM | > 100 µM | > 100 µM | – | > 100 µM | > 100 µM | > 100 µM | > 100 µM | – | – | – | – | – | – | – | – | –
O=c1[nH]c(=O)n(C2CC(O)C(CO)O2)cc1NN=NCCCc1ccccc1 (configuration not stated) | > 100 µM | > 100 µM | > 100 µM | – | > 100 µM | > 100 µM | – | – | > 100 µM | > 100 µM | – | – | – | – | – | – | – | – | –
CC(C)CCCC(C)[C@H]1CC[C@H]2[C@@H]3CC[C@H]4C[C@@H](CCC=C(c5cc(Cl)c(O)c(C(=O)OC(C)C)c5)c5cc(Cl)c(O)c(C(=O)OC(C)C)c5)CC[C@]4(C)[C@H]3CC[C@]12C (some centres not stated) | > 50 µM | > 50 µM | > 50 µM | > 50 µM | – | > 50 µM | – | > 50 µM | – | > 50 µM | – | – | – | – | – | – | – | – | –
O=c1c2c3c(sc2nc2n1N=C(c1ccc(Cl)cc1)CS2)CCCC3 | > 100 µM | – | > 100 µM | > 100 µM | > 100 µM | > 100 µM | > 100 µM | > 100 µM | > 100 µM | > 100 µM | – | – | – | – | – | – | – | – | –
COC(=O)[C@H]1NC(=O)CCSSC1(C)C | – | > 100 µM | > 100 µM | > 100 µM | > 100 µM | > 100 µM | > 100 µM | > 100 µM | – | > 100 µM | – | – | – | – | – | – | – | – | –
CN(C)c1ccc(C=C2C(=O)N(c3ccccc3)N(c3ccccc3)C2=O)cc1 | > 100 µM | > 100 µM | > 100 µM | > 100 µM | > 100 µM | > 100 µM | > 100 µM | > 100 µM | – | > 100 µM | – | – | – | – | – | – | – | – | –
CCOC(=O)c1c(-c2ccc(Cl)cc2)c(C#N)c(=S)n(C2OC(COC(C)=O)C(OC(C)=O)C(OC(C)=O)C2OC(C)=O)c1-c1ccccc1 (configuration not stated) | > 100 µM | > 100 µM | > 100 µM | > 100 µM | > 100 µM | – | > 100 µM | > 100 µM | > 100 µM | > 100 µM | – | – | – | – | – | – | – | – | –
Brc1ccc2c3c1[C@H]1O[C@H]1c1cccc(c1-3)[C@@H]1O[C@H]21 | 35.1 µM | 32.4 µM | 34.6 µM | 37.1 µM | 31.9 µM | 41.1 µM | 32.1 µM | – | – | 29.3 µM | – | – | – | – | – | – | – | – | –
O=C1C=C2SC3C[C@@]24CC1[N+]1=c2c4c(c(O)c4c2=C(C=N4)CC1)N3 | 7 µM | – | – | 3.33 µM | – | 16.6 µM | 30.3 µM | 7.38 µM | 9.03 µM | 11.6 µM | – | – | – | – | – | – | – | – | –
COc1cc(C2c3cc4c(cc3OC(Nc3ccccc3)C2C)OCO4)cc(OC)c1O (configuration not stated) | – | 60.7 µM | 21.7 µM | 14.2 µM | – | – | 25.8 µM | 9.86 µM | – | 15.6 µM | – | – | – | – | – | – | – | – | –
C(=Nc1ccc(-c2nc3ccccc3[nH]2)cc1)c1ccc[nH]1 | – | > 100 µM | > 100 µM | – | > 100 µM | > 100 µM | > 100 µM | > 100 µM | – | – | – | – | – | – | – | – | – | – | –

Reference: PubChem BioAssay (NCI)
